Starred links: 1 amine or outer side, 2 acyl side, 3 side chain; linkers in the order of their positions; H or OH if unused. Positions of bridges follow the written chain, without caps; N, C: chain ends. Non-standard residues stand in square brackets, D forms with d. Residues, ends and D or L forms follow the SMILES beside them. Chains are numbered I, II in the order given. Actinocin(9to1) = Cc1c2oc3c(C)ccc(C(=O)[*:1])c3nc-2c(C(=O)[*:2])c(N)c1=O; NMeV = CN[C@H](C(=O)O)C(C)C; Sar = CNCC(=O)O

Assay [1] concerns chaperone-mediated autophagy (CMA). The experiment in a line: High content microscopy CMA assay (KFERQ-PS-dendra reporter). The assay is classed as cell-based, mouse. To be noted: for basal versus stress-induced CMA activation: presence or absence of serum. Here is the method:
CMA activity in mouse fibroblasts in culture was measured using a new version of a previously developed photoswitchable (PS) CMA fluorescent reporter^30 generated by addition of a CMA targeting motif to the PS-dendra protein (KFERQ-PS-dendra). Briefly, cells transduced with lentivirus carrying the reporter were photoactivated 24 h after transduction by exposure to a 3.5 mA (current constant), and 90V light emitting diode (LED: Norlux, 405 nm) for 9 min. Cells were plated in 96 well plates, subjected to the desired treatments and at the end of the experiment fixed in 4% paraformaldehyde. Images were captured with a high content microscope (Opperetta system, Perkin Elmer) and quantification was performed with the instrument software in a minimum of 200 cells or 9 fields.

Assay [2] concerns the target T1, hRARα (Homo sapiens, UniProt P10276).
T1 construct: expressed in transfected cells; host or cells: mouse fibroblasts (NIH3T3)
The experiment in a line: RARα activity, RAR-responsive luciferase reporter. Particulars: for RARα antagonist activity (inhibition of ATRA-dependent luciferase): in combination with 100 nM ATRA. In kind it is cell-based. Here is the method: Measurement of RARα and RXR activity. A RAR-responsive luciferase construct was utilized to monitor the activity of RARα in cultured cells. Cells were co-transfected with pCMX-Gal-L-hRARα and a construct encoding the firefly luciferase reporter gene under the control of a minimal promoter and tandem repeats of the retinoic-acid response element (tk-px3-luc). Co-transfection with a renilla luciferase reporter plasmid was performed to control for efficiency of transfection. RXR activity was measured by similar procedures using co-transfection with pCMX-mRXR and tk-apoA1-luc. Compounds were added 24 h after transfection and 48 h later cells were lysed and assayed for luciferase activity using the Dual-Luciferase Reporter Assay System (Progmega). Luciferase values were normalized to the renilla luciferase reporter.
To determine the effect of these molecules on RAR signaling, cells were co-transfected cells with a plasmid coding for RAR fused to the Gal4 DNA-binding domain and a Gal4-dependent luciferase reporter.
In general terms: A reporter such as luciferase makes a cellular process visible.

For assay [3], the system named is macroautophagy (LC3-II). The experiment in a line: Macroautophagy: LC3-II levels and flux (immunoblot, mCherry-GFP-LC3). In kind it is cell-based. To be noted: mouse fibroblasts; retinoid derivatives 20 μM. The source says: (§1) Autophagic measurements. […] Lysosomes from cultured cells were isolated by similar procedures but using instead discontinuous metrizamide/percoll gradients after rupture of the plasma membrane through nitrogen cavitation^33.
To directly analyze macroautophagy, a widely accepted assay was used to measure activity of this pathway based on the analysis of the intracellular levels and degradation of the lipid-conjugated form of the light chain protein type 3 (LC3-II), a constitutive component of autophagosomes^29. Steady-state levels of LC3-II provide information on the amount of autophagosomes present in a cell at a given time, whereas the amount of LC3-II that accumulates upon blockage of lysosomal proteolysis allows measuring the efficiency of fusion and degradation of autophagic vacuoles by lysosomes (autophagic flux). […] Immunofluorescence for LC3 in these cells confirmed the presence of higher content of LC3-positive vesicles in the cells defective for RARα. These vesicles were confirmed to be autophagosomes using a double tagged form of LC3 (mCherry-GPF-LC3) that due to quenching of GFP fluorescence at low pH highlights autophagosomes in yellow and lysosomes in red. […] An increase in autophagosome content can result from increased formation of these organelles (autophagosome induction) or from reduced clearance of autophagosomes by lysosomes. To differentiate between both possibilities, the autophagic flux was compared in control and RARα (−) cells.

The subject of assay [4] is chaperone-mediated autophagy (CMA). As to the kind of experiment: CMA reporter assay (photoactivable KFERQ-PA-mCherry1 reporter). In kind it is cell-based, mouse. Particulars: for CMA activity (fluorescent puncta per cell, CMA reporter): mouse fibroblasts, 20 μM.
From the text: as §1
CMA reporter assay. The photoactivable CMA reporter was constructed by inserting a sequence of 21 amino acids of Ribonuclease A bearing the CMA-targeting motif in the N-terminus multicloning site of the photoactivable protein mCherry1 (PA-mCherry1)^30. […] All images were acquired with a high-resolution CCD camera after optical sectioning through the apotome. Images were prepared using Adobe Photoshop 6.0 software (Adobe Systems). Quantification was performed in individual frames after deconvolution and thresholding using ImageJ software (NIH) in a minimum of 50 cells.
Because the observed downregulation of macroautophagy upon RARα knock-down cannot explain the increase in lysosomal degradation observed in these cells (FIG. 1c), the effect of this intervention on CMA was measured. Activation of this selective autophagic pathway can be determined using a photoactivable (PA) reporter fused to the CMA-targeting motif (KFERQ-PA-mcherry1)^30. Activation of CMA favors mobilization of this artificial CMA substrate from the cytosol to lysosomes, which can be tracked as a change in the reporter fluorescence from a diffuse to a punctate pattern^30.

Assay [5] has as its system mouse fibroblasts (NIH3T3). As to the kind of experiment: Intracellular protein degradation (metabolic labeling, pulse chase).
Assay [6] relates to LAMP-2A. The experiment in a line: LAMP-2A mRNA levels (quantitative real time PCR). A general note: Real-time PCR tracks product formation cycle by cycle.
Assay [7] concerns mouse fibroblasts transfected with α-synuclein. As to the kind of experiment: α-synuclein plus PQ proteotoxicity (viability, immunoblot). In kind it is cell-based. To be noted: pre-treatment 20 μM before 1 mM PQ. An excerpt: Maintained chronic oxidation is a common feature of aging and an aggravating factor in multiple degenerative disorders. To model the detrimental effect of oxidative stress on proteotoxicity and analyze the possible beneficial effect of enhancing CMA activity in these conditions, cells were transfected with α-synuclein, the protein that accumulates in the form of intracellular aggregates in Parkinson's disease (PD) and previously identified as a bonafide CMA substrate^9,10. Although mutations in this protein have been associated to the familial forms of the disease, in more than 98% of PD patients the protein that accumulates in the protein inclusions is wild type. Consequently, different intracellular factors and aggressors, including oxidative stress, have been proposed to contribute to the idiopathic forms of this pathology. […] Although the presence of α-synuclein alone was not toxic for these cells, the toxicity of a fixed concentration of PQ was clearly dependent on the concentration of this protein present in the cell. The concentration of PQ added to these cells was adjusted so that in cells expressing low levels of α-synuclein, its toxic effect was limited to no more than 20% reduction in cellular viability. […]
In general terms: In western blotting, separated proteins are transferred to a membrane and probed.

The target of assay [8] is T2, RARα (Mus musculus, UniProt P11416).
T2 construct: endogenous in cells; host or cells: mouse fibroblasts (NIH3T3), inferred
T2 sequence (P11416 1-462): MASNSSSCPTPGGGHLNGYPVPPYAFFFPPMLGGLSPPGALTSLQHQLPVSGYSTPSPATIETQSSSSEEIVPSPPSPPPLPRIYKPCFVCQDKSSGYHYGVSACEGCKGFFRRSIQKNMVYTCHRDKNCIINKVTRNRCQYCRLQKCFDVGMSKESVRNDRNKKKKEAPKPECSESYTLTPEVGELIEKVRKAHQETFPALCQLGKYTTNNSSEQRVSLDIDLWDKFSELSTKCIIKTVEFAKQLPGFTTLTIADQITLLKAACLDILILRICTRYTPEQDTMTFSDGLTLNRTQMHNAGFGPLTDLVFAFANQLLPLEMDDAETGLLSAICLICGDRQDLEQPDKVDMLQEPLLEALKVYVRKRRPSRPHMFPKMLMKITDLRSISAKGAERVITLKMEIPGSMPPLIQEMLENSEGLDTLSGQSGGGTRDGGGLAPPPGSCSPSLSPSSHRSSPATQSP
The experiment in a line: RARα translocation to the nucleus. The assay is classed as cell-based.

T1 sequence (P10276 with tags, fused parts or gaps limits assumed): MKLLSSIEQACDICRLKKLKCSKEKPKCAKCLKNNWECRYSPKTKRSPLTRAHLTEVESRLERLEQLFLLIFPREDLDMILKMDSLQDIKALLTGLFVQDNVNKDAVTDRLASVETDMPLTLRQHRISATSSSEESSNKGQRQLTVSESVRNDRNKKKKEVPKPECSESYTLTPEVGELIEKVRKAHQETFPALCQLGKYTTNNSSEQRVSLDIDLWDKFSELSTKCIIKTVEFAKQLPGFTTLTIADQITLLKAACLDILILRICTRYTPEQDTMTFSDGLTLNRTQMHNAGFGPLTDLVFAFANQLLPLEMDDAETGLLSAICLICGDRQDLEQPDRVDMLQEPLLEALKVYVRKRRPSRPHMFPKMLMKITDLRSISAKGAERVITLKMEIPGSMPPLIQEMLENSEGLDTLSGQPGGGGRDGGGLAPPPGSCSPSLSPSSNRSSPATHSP

Consider `Clc1ccc2c(c1)OCC(c1ccc(-c3ccccc3)cc1)=N2` [QX39], for which the “CMA activation potency relative to AR7” value in assay [1] (cultured cells, photoactivatable CMA reporter) is 2-3 fold. The “basal versus stress-induced CMA activation” value in assay [1] was “activated both basal and stress-induced CMA”.
On to `CC1=CC(=Cc2ccc(C(=O)NC(=N)N)cc2)CCC1` [GR2, N-[4-(3-methyl-cyclohex-2-enylidenemethyl)-benzoyl]-guanidine], for which the “RARα antagonist activity (inhibition of ATRA-dependent luciferase)” value in assay [2] was “among the most potent antagonist compounds in the library”. Besides, the “macroautophagy: LC3 steady state levels and lysosomal flux” value in assay [3] is “absence of effect on other autophagic pathways”. For the same compound, the “CMA activity (fluorescent puncta per cell, CMA reporter)” value in assay [4] (presence of serum) is “marked activation of CMA activity”.
In the case of `Cc1c2oc3c(C)ccc(C(=O)N[C@@H]4C(=O)N[C@H](C(C)C)C(=O)N5CCC[C@H]5C(=O)N(C)CC(=O)N(C)[C@@H](C(C)C)C(=O)O[C@@H]4C)c3nc-2c(C(=O)N[C@@H]2C(=O)N[C@H](C(C)C)C(=O)N3CCC[C@H]3C(=O)N(C)CC(=O)N(C)[C@@H](C(C)C)C(=O)O[C@@H]2C)c(N)c1=O` [Actinomycin D] (I: T[dV]P[Sar][NMeV] / II: T[dV]P[Sar][NMeV]; ester I:1-I:C, II:1-II:C; linker I:N-II:N via Actinocin(9to1)), the “stimulatory effect of AR7 on CMA under transcriptional repression” value in assay [4] (AR7 plus Actinomycin D) is recorded as “partially reduced the stimulatory effect of AR7 on CMA”.
For the compound `CC1=C(/C=C/C(C)=C/C=C/C(C)=C/C(=O)O)C(C)(C)CCC1` [ATRA, all-trans-retinoic acid], in assay [2] (compound alone), the “RARα agonist activity (luciferase)” value is “dose-dependent activation”. For the same compound, the “protein degradation in response to prolonged serum removal” value in assay [5] (40 μM ATRA, absence of serum) is given as “significantly reduced the increase in protein degradation”. In addition, the “lysosomal degradation (sensitive to inhibitors of lysosomal proteolysis)” value in assay [5] (40 μM ATRA, basal and inducible) is “both basal and inducible lysosomal degradation were significantly compromised”. Further, the “total rates of protein degradation, basal” value in assay [5] (40 μM ATRA, presence of serum) is given as “did not affect total rates of protein degradation under basal conditions”. The “inhibitory effect on autophagic degradation of cytosolic proteins in RARα (−) cells” value in assay [5] (ATRA, RARα knock-down) was “still detectable when RARα (−) cells were supplemented with ATRA”. Further, in assay [3], the “macroautophagy: LC3 steady state levels and lysosomal flux” value is “no significant changes in steady state levels of LC3 or in its lysosomal flux”. The “basal CMA” value in assay [4] (ATRA treatment, presence of serum) is recorded as “did not have a noticeable effect on basal CMA”. Besides, in assay [4] (ATRA treatment, serum removal), the “activation of CMA in response to serum removal” value was “significantly reduced the activation of this pathway in response to serum removal”. For the same compound, the “effect on CMA activity in RARα (−) cells” value in assay [4] (RARα knock-down mouse fibroblasts) is reported as “no longer inhibited CMA activity in RARα (−) cells”. Moreover, in assay [6] (ATRA added to cells deprived of serum), the “LAMP-2A mRNA levels, serum deprived” value was “significant decrease in LAMP-2A mRNA”. In assay [6] (ATRA, basal conditions), the “LAMP-2A mRNA levels, basal” value is “No changes in LAMP-2A mRNA levels”.
As to `CC1=CC(=Cc2ccc(C(=O)NC(=N)N)cc2)CC(C)(C)C1` [GR1, N-[4-(3,5,5-trimethyl-cyclohex-2-enylidenemethyl)-benzoyl]-guanidine], the “macroautophagy: LC3 steady state levels and lysosomal flux” value in assay [3] is “absence of effect on other autophagic pathways”. Besides, in assay [4] (presence of serum), the “CMA activity (fluorescent puncta per cell, CMA reporter)” value was “marked activation of CMA activity”.
Turning to `CC1(C)CC=C(c2cnc3ccccc3c2)c2cc(C(=O)Nc3ccc(C(=O)O)cc3)ccc21` [BMS614], in assay [3], the “macroautophagy: LC3 steady state levels and lysosomal flux” value is recorded as “inhibited macroautophagy”. The “CMA activity (fluorescent puncta per cell, CMA reporter)” value in assay [4] (presence of serum) is “also enhanced CMA activity”.
In the case of `Cc1ccc(C2=Nc3ccc(Cl)cc3OC2)cc1` [AR7], the “RARα antagonist activity (inhibition of ATRA-dependent luciferase)” value in assay [2] is listed as “among the most potent antagonist compounds in the library”. The “basal versus stress-induced CMA activation” value in assay [1] was “only activated basal CMA”. In assay [3], the “macroautophagy: LC3 steady state levels and lysosomal flux” value is given as “absence of effect on other autophagic pathways”. The “cellular viability of α-synuclein-transfected cells treated with PQ” value in assay [7] is given as “significant increases in cellular viability”. In addition, the “CMA activity (fluorescent puncta per cell, CMA reporter)” value in assay [4] (presence of serum) is reported as “marked activation of CMA activity”. Moreover, the “RARα relocation to the nucleus” value in assay [8] is “sufficient to stimulate some relocation of cytosolic RARα to the nucleus”.

The record behind these values is patent US11591324B2, “Retinoic acid receptor antagonists as chaperone-mediated autophagy modulators and uses thereof” (ALBERT EINSTEIN COLLEGE OF MEDICINE, priority 2013, dated 2023).
